In patent publication US20230330178A1, “USE OF POLYPEPTIDE IN DRUG FOR PREVENTING AND TREATING PNEUMONIA” (priority 2020, published 2023):
Read-outs that look alike come from different tables or passages of the source.

What was measured:
[1] = tested on: models of pneumonia in rats induced by mixed bacteria solution of Staphylococcus aureus, Streptococcus pneumoniae, and Escherichia coli; test: Arterial blood gas in rat pneumonia model induced by mixed bacteria; type: in vivo, SD rats; conditions: pneumonia model rats, budesonide 0.05 mg/mL suspension (0.18 mg/kg) inhaled
Excerpt: (§1) Bacterial pneumonia is the most common pneumonia, is also one of the most common infectious diseases, and is caused by bacterial infection. Main pathogenic bacteria of the bacterial pneumonia include Streptococcus pneumoniae, Staphylococcus aureus, Escherichia coli, and the like, which pose a great threat to the health of children and the elderly. In this experiment, a mixed bacteria solution of Staphylococcus aureus, Streptococcus pneumoniae, and Escherichia coli was instilled into the trachea to induce models of pneumonia in rats. Pharmacodynamic effects of a peptide on pneumonia were evaluated by observing effects of the peptide inhaled through the nose and mouth on the models of pneumonia caused by mixed bacteria infection.
(§2) 80 SD rats, SPF grade, half male and half female, were selected and randomly divided into 8 groups according to sex and body weight, including 6 rats in each of a blank control group and a model evaluation group, 8 rats in a blank administration group, and 12 rats in each of a model control group, an erythromycin group, a budesonide group, a low-dose polypeptide treatment group, and a high-dose polypeptide treatment group.
(§3) Animals in the blank administration group were not modeled, and inhaled a high-concentration polypeptide aerosol (0.48 mg/L) through nose and mouth every day. Animals in the blank control group were instilled with a 0.5 mL 0.9% sodium chloride injection through trachea. After the remaining groups were slightly anesthetized with ether, the model control group, the erythromycin group, the budesonide group, the low-dose polypeptide treatment group, and the high-dose polypeptide treatment group were instilled with a 1×10^8 CFU/mL mixed bacteria solution of Staphylococcus aureus, Streptococcus pneumoniae, and Escherichia coli through trachea, 0.5 mL/rat, respectively, and the blank control group was instilled with a 0.9% sodium chloride injection of a same volume.
(§4) A specific modeling method was as follows: a rat was anesthetized by ether inhalation and lied on an anatomical plate at an angle of 30-45°, trachea of the rat was exposed under an otoscope, a long puncture needle was connected to a 1 mL syringe and inserted into the trachea, each rat was injected with 0.5 mL of mixed bacteria, the puncture needle was pulled out after the injection, the rat was still kept at the original tilt position for about 10 min, and the bacteria solution flowed into bronchus and alveoli due to gravity to cause infection, so as to induce a rat pneumonia model.
Each group was administrated for the first time at 2 h after modeling. After the experiment begun, 7.16 mg/mL and 71.6 mg/mL peptide solutions were atomized into aerosol particles with target concentrations of 0.07 and 0.48 mg/L every day, and the animals in the low-dose peptide treatment group and the high-dose peptide treatment group (0.54 mg/kg and 3.7 mg/kg, corresponding to drug concentrations 0.07 and 0.48 mg/L respectively) inhaled the aerosol particles with corresponding concentrations through mouth and nose respectively for 7 consecutive days, 10 min/time, 3 times a day; the blank administration group (cumulative dose 22.2 mg/kg, corresponding to a drug concentration 0.48 mg/L) inhaled 0.48 mg/L peptide aerosol particles through mouth and nose every day for 7 consecutive days, 20 min/time, 3 times a day; the blank control group and the model control group inhaled a 0.9% sodium chloride solution for the same time according to the same method; the erythromycin group and the budesonide group were administrated with a 5 mg/mL erythromycin solution and a 0.05 mg/mL budesonide suspension respectively for the same time according to the same method; and body weight of each group was tested every day. […]

[2] = tested on: models of pneumonia in rats induced by mixed bacteria solution of Staphylococcus aureus, Streptococcus pneumoniae, and Escherichia coli; test: Lung function test in rat pneumonia model induced by mixed bacteria; type: in vivo, SD rats
Excerpt: as §1, §2, §3, §4
(§5) Each group was administrated for the first time at 2 h after modeling. After the experiment begun, 7.16 mg/mL and 71.6 mg/mL peptide solutions were atomized into aerosol particles with target concentrations of 0.07 and 0.48 mg/L every day, and the animals in the low-dose peptide treatment group and the high-dose peptide treatment group (0.54 mg/kg and 3.7 mg/kg, corresponding to drug concentrations 0.07 and 0.48 mg/L respectively) inhaled the aerosol particles with corresponding concentrations through mouth and nose respectively for 7 consecutive days, 10 min/time, 3 times a day; the blank administration group (cumulative dose 22.2 mg/kg, corresponding to a drug concentration 0.48 mg/L) inhaled 0.48 mg/L peptide aerosol particles through mouth and nose every day for 7 consecutive days, 20 min/time, 3 times a day; the blank control group and the model control group inhaled a 0.9% sodium chloride solution for the same time according to the same method; the erythromycin group and the budesonide group were administrated with a 5 mg/mL erythromycin solution and a 0.05 mg/mL budesonide suspension respectively for the same time according to the same method; and body weight of each group was tested every day.

Streptococcus pneumoniae = test: animal or person; type: in vivo; conditions: budesonide 0.05 mg/mL suspension (0.18 mg/kg) inhaled; for Number of streptococcus pneumoniae: lung tissue of pneumonia model rats; for inhibition at 50 µg/mL: Streptococcus pneumoniae, in Rattus norvegicus, inhaled or nasal, vs model control group
Experimental: as §3, §4, §5
(§6) Except the blank administration group, half animals of the remaining groups were randomly selected for lung function test, gross anatomy examination, and pathological test on D4 day, and lungs of 3 animals in each group were selected for bacteria culture and counting; and on D8 day, the remaining animals were subjected to lung function test, gross anatomy examination, and pathological test, and lungs of 3 animals in each group were selected for bacteria culture and counting (the blank control group and the blank administration group were not examined).
(§7) Experimental steps of bacteria culture: except the blank administration group, six animals were randomly selected from each of the remaining groups (three animals were randomly selected from the first and last anatomies), left middle lobe lung tissues were taken, washed with 0.9% sodium chloride injection, added with double weight of 0.9% sodium chloride injection, and ground into homogenate, the homogenate was inoculated into a meat extract agar medium and cultured at 37° C. for 16 to 18 h, bacteria were isolated, and each isolated bacteria suspension was diluted to 10^−1, 10^−2, 10^−3, 10^−4, 10^−5, 10^−6, 10^−7 and 10^−8 according to 10 times gradient, namely, 9 mL normal saline plus 1 mL bacteria suspension was 10^−1, and so on. […]

Escherichia coli = test: animal or person; type: in vivo; conditions: budesonide 0.05 mg/mL suspension (0.18 mg/kg) inhaled; for Number of escherichia coli: lung tissue of pneumonia model rats; for inhibition at 50 µg/mL: Escherichia coli, in Rattus norvegicus, inhaled or nasal, vs model control group
Experimental: as §3, §4, §5, §6, §7

Staphylococcus aureus = test: animal or person; type: in vivo; conditions: budesonide 0.05 mg/mL suspension (0.18 mg/kg) inhaled; for Number of staphylococcus aureus: lung tissue of pneumonia model rats; for inhibition at 50 µg/mL: Staphylococcus aureus, in Rattus norvegicus, inhaled or nasal, vs model control group
Experimental: as §3, §4, §5, §6, §7

[3] = D4, budesonide 0.05 mg/mL suspension (0.18 mg/kg) inhaled
[4] = D8, budesonide 0.05 mg/mL suspension (0.18 mg/kg) inhaled

CCCC1O[C@@H]2C[C@H]3[C@@H]4CCC5=CC(=O)C=C[C@]5(C)[C@H]4[C@@H](O)C[C@]3(C)[C@]2(C(=O)CO)O1 (stereo partly shown) [Budesonide, budesonide]
PaCO2: partial pressure of carbon dioxide ([1]; D4): 52.87 ± 13.34 mmHg | PaO2: partial pressure of oxygen ([1]; D4): 75.73 ± 30.92 mmHg | arterial blood pH ([1]; D4): 7.31 ± 0.07 | PaCO2: partial pressure of carbon dioxide ([1]; D8): 34.35 ± 8.17 mmHg | PaO2: partial pressure of oxygen ([1]; D8): 86.67 ± 24.78 mmHg | arterial blood pH ([1]; D8): 7.45 ± 0.06 | FEV200 (forced expiratory volume) [2, 3]: 2.72 ± 0.72 mL | FEV200/FVC [2, 3]: 85.78 ± 8.00% | FVC: forced vital capacity [2, 3]: 3.13 ± 0.59 mL | VT: tidal volume [2, 3]: 1.86 ± 0.69 mL | f: respiratory rate [2, 3]: 130 ± 39 time/min | FEV200 (forced expiratory volume) [2, 4]: 3.43 ± 0.69 mL | FEV200/FVC [2, 4]: 89.77 ± 4.58% | FVC: forced vital capacity [2, 4]: 3.80 ± 0.65 mL | VT: tidal volume [2, 4]: 1.63 ± 0.27 mL | f: respiratory rate [2, 4]: 126 ± 11 time/min | Number of streptococcus pneumoniae (Streptococcus pneumoniae; D4): 1810 ± 957 CFU/mL | Number of streptococcus pneumoniae (Streptococcus pneumoniae; D8): 433 ± 276 CFU/mL | inhibition at 50 µg/mL (Streptococcus pneumoniae; read-out: Inhibition rate of streptococcus pneumoniae, D4): 61.7% | inhibition at 50 µg/mL (Streptococcus pneumoniae; read-out: Inhibition rate of streptococcus pneumoniae, D8): 72.7% | Number of escherichia coli (Escherichia coli; D4): 3737 ± 1115 CFU/mL | Number of escherichia coli (Escherichia coli; D8): 890 ± 409 CFU/mL | inhibition at 50 µg/mL (Escherichia coli; read-out: Inhibition rate of escherichia coli, D4): -20.6% | inhibition at 50 µg/mL (Escherichia coli; read-out: Inhibition rate of escherichia coli, D8): 7.58% | Number of staphylococcus aureus (Staphylococcus aureus; D4): 2577 ± 655 CFU/mL | Number of staphylococcus aureus (Staphylococcus aureus; D8): 560 ± 269 CFU/mL | inhibition at 50 µg/mL (Staphylococcus aureus; read-out: Inhibition rate of staphylococcus aureus, D4): 48.7% | inhibition at 50 µg/mL (Staphylococcus aureus; read-out: Inhibition rate of staphylococcus aureus, D8): 83.4%
